# Values quoted from earlier work in US20260200930A1, “PRODRUGS OF TEMOZOLOMIDE TO FACILITATE DELIVERY INTO BRAIN TUMORS” (H. LEE MOFFITT CANCER CENTER AND RESEARCH INSTITUTE, INC., priority 2022, published 2026).
# What was measured:
# [1] = oral chemotherapy; % of the highest plasma concentration
smiles,measurement,setting,value
"Cn1nnc2c(C(N)=O)ncn2c1=O [TMZ, temozolomide]",brain concentration relative to highest plasma concentration that can safely be obtained,[1],about 40%
same,solubility in water,,insoluble in water
